# Where two headings read alike, the source gives them in different places.
# Columns and labels:
# [1] = target: tankyrase 2 protein PARP domain, TNKS2P (GST-tagged) (Homo sapiens (Human), UniProt Q9H2K2); assay: TNKS2 autoparsylation (AP) biochemical assay, LC/MS detection of nicotinamide; settings: 20 nM enzyme, 250 μM NAD+, 60 min room temperature
# [2] = test system: Wnt ligand-induced signaling; assay: Wnt-responsive Super-TOpFlash (STF) luciferase reporter gene assay in HEK293 cells; format: cell-based; settings: Wnt3A condition medium induced
# Description: Compound activity in inhibiting Wnt ligand-induced signaling was measured using a Wnt-responsive Super-TOpFlash (STF) luciferase reporter gene assay in HEK293 cells. On day 1 of the assay, cells were plated at a density of 8000 cells per well of 384-well plate in 25 μl medium containing 5% fetal bovine serum (FBS). On the second day, […] condition medium (CM) produced from mouse L cells was added to the cells to induce Wnt signaling, followed by addition of 5 μL of compounds each well in 10-point serial dilution. On the third day, the luciferase activity was measured by the Bright-Glo™ Luciferase Assay System following manufacture's protocol (Promega, E2620). The Inhibition was calculated as: (Maximum Wnt-induced signaling−Sample)/(Maximum Wnt-induced signaling−Background)*100. “Maximum Wnt-induced signaling” is the STF signal level induced by 20% Wnt3A CM without compound; and “Background” is the STF signal level without the addition of Wnt3A CM or compound.
# [3] = target: human tankyrase 1 PARP catalytic domain, TNKS1P (GST-tagged) (Homo sapiens (Human), UniProt O95271); assay: TNKS1 autoparsylation (AP) biochemical assay, LC/MS detection of nicotinamide; settings: 20 nM enzyme, 250 μM NAD+, 60 min room temperature
# Description: The human tankyrase 1 PARP catalytic domain, TNKS1P, was cloned into a pDONR221 vector using the Invitrogen Gateway Technology. This entry clone was then subcloned into the destination vector pDEST20 to obtain the N-terminal Glutathione S-transferase (GST)-tagged fusion protein.
# The autoparsylation activity of the TNKS 1/2 or PARP1/2 enzymes was measured by the liquid chromatography-mass spectrometry (LC/MS) detection of nicotinamide as readout. Compound activity in inhibiting the TNKS and PARP autoparsylation was evaluated by IC50 measurements.
# [4] = test system: Non-small lung cancer ABC-1 cells; assay: Cellular proliferation assay, ABC-1 cells (CellTiter-Glo); format: cell-based; settings: 3 days of compound treatment
# Description: Non-small lung cancer ABC-1 cells were plated at 5000 cells per well in 96-well plates and treated with 8 serial compound dilutions starting from 10 μM as the highest concentration. Viable cells were measured after 3 days of compound treatment using the CellTiter-Glo assay (Promega, G7570). Assay was performed following the manufacture protocol.
# [5] = test system: Axin2 protein; assay: Cellular ELISA assay for stabilizing the Axin2 protein in SW480 cells; format: cell-based; settings: 24 hrs treatment, read-out: Axin AC50
# Description: Compound activity in stabilizing the Axin2 protein was measured by Sandwich Enzyme-Linked Immuosorbent (ELISA) assay in the colorectal cell line SW480. 30,000 SW480 cells were seeded per well in 96-well plate and incubated overnight prior to compound treatment. Cells were then treated with compounds in 6-point dilution starting at 10 μM for 24 hrs. Cells were then washed with 100 μL of cold Phosphate Buffer Saline (PBS), and lysed in 125 μl of cold 1× lysis buffer (Cell Signaling Technology, 9803) supplemented with Protease inhibitor (Roche, 11836170) and Phosphatase inhibitors (Sigma, P2850, P5726). For the ELISA assay, anti Axin-2 capture antibody (Strategic Diagnostics) antibody was diluted to a concentration of 1 μg/ml (1:1000) in Carbonate Coating buffer, pH 9.2 (Sigma, C3041-50CAP). 100μ of the diluted anti Axin-2 capture antibody per well was then used to coat the 96-well ELISA plate (Thermo Electron Corp., MicroLite 1 flat bottom plate #7571) overnight at 4° C. Plates were then washed three times with 300 μl/well of wash solution, PBST20 (PBS+0.05% Tween), and blocked with 300 μl/well 1% BSA/PBS (BSA, Millipore Probumin #82-045-1) for 1.5 hours at room temperature while shaking gently. After blocking, plates were then washed three times with 300 μl/well of wash solution. 100 μL of prepared SW480 cell lysate was then added to each well and incubated at room temperature for 2 hours while shaking gently. After washing, 100 μL of Biotinylated anti-Axin2 antibody (CST, 2151) was added to each well and incubated room temperature for 2 hours. 100 μL of Streptavidin-HRP (R&D systems, DY998) diluted 1:200 in 1% BSA/PBS was then added in each well and incubate for 30 mins at R/T in the dark. Signal was detected by Chemiluminescence (Pierce SuperSignal ELISA Femto #3704), and measured on PerkinElmer Wallac 1420 plate reader.
# tankyrase 2 protein PARP domain, TNKS2P (GST-tagged), sequence (Q9H2K2 959-1164): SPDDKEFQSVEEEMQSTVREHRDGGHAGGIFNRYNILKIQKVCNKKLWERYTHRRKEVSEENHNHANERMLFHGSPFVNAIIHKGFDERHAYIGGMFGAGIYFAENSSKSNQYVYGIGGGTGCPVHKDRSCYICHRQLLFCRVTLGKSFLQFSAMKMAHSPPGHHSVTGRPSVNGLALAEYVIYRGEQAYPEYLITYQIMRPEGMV
# human tankyrase 1 PARP catalytic domain, TNKS1P (GST-tagged), sequence (O95271 1112-1317): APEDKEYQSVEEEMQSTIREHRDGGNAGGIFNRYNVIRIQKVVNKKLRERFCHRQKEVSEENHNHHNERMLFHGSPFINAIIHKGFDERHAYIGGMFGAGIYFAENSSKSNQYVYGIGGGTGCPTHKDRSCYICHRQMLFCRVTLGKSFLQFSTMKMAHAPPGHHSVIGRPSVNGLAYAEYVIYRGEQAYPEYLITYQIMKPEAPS
Structure (SMILES),IC50 [1] [nM],IC50 ([2]; Homo sapiens) [nM],IC50 [3] [nM],"IC50 ([4]; Homo sapiens, 72 h) [nM]",AC50 ([5]; Homo sapiens) [nM],IC50 [2] [nM],IC50 [4] [nM],AC50 [5] [nM]
"COc1ccc(C(=O)C2CCN(C3CCN(Cc4cccc(Cl)c4C#N)C3=O)CC2)cc1 (stereo not shown) [Example 1, 2-Chloro-6-{3-[4-(4-methoxy-benzoyl)-piperidin-1-yl]-2-oxo-pyrrolidin-1-ylmethyl}-benzonitrile]",81 ± 1,99 ± 11,162 ± 4,408,239 ± 31,–,–,–
"COc1ccc(C(=O)C2CCN([C@@H]3CCN(Cc4nc5c(c(=O)[nH]4)COCC5)C3=O)CC2)cc1 [Example 4, 2-{(R)-3-[4-(4-Methoxy-benzoyl)-piperidin-1-yl]-2-oxo-pyrrolidin-1-ylmethyl}-3,5,7,8-tetrahydro-pyrano[4,3-d]pyrimidin-4-one]",600 ± 330,95 ± 11,1600 ± 1200,1020 ± 340,310 ± 270,–,–,–
"COc1ccc(C(=O)C2CCN(C3CCN(Cc4ccc(Cl)c(C#N)c4)C3=O)CC2)cc1 (stereo not shown) [Example 5, 2-Chloro-5-((3-(4-(4-methoxybenzoyl)piperidin-1-yl)-2-oxopyrrolidin-1-yl)methyl)benzonitrile]",15 ± 1,17 ± 3,36 ± 1,156,66 ± 1,–,–,–
COc1ccc(C(=O)C2CCN(C3CCN(Cc4nc5ccsc5c(=O)[nH]4)C3=O)CC2)cc1 (stereo not shown) [Example 7],83 ± 5,54 ± 12,211 ± 63,1470,451 ± 68,–,–,–
COc1ccc(C(=O)C2CCN(C3CCN(Cc4nc5sc(C)cc5c(=O)[nH]4)C3=O)CC2)cc1 (stereo not shown) [Example 8],141 ± 40,18 ± 4,96 ± 28,133,78 ± 13,–,–,–
"O=C(c1ccc(F)cc1)C1CCN([C@@H]2CCN(Cc3nc4c(c(=O)[nH]3)COCC4)C2=O)CC1 [Example 12, 2-{(R)-3-[4-(4-Fluoro-benzoyl)-piperidin-1-yl]-2-oxo-pyrrolidin-1-ylmethyl}-3,5,7,8-tetrahydro-pyrano[4,3-d]pyrimidin-4-one]",2120 ± 50,620 ± 90,5340 ± 340,> 10000,> 10000,–,–,–
"COc1ccc(C(=O)C2CCN([C@@H]3CCN(Cc4nc5c(c(=O)[nH]4)COCC5)C3=O)CC2)cc1C [Example 14, 2-{(R)-3-[4-(4-Methoxy-3-methyl-benzoyl)-piperidin-1-yl]-2-oxo-pyrrolidin-1-ylmethyl}-3,5,7,8-tetrahydro-pyrano[4,3-d]pyrimidin-4-one]",206 ± 20,31 ± 3,711 ± 20,149,128 ± 130,–,–,–
"COc1ccc2c(c1)CC1(CCN(C3CCN(Cc4nc5c(c(=O)[nH]4)COCC5)C3=O)CC1)C2=O (stereo not shown) [Example 15, 2-((3-(5-methoxy-1-oxo-1,3-dihydrospiro[indene-2,4′-piperidine]-1′-yl)-2-oxopyrrolidin-1-yl)methyl)-7,8-dihydro-3H-pyrano[4,3-d]pyrimidin-4(5H)-one]",–,< 0.5,33 ± 2,43,16 ± 1,–,–,–
COc1ccc2c(c1)CC1(CCN([C@H]3CCN(Cc4nc5c(c(=O)[nH]4)COCC5)C3=O)CC1)C2=O [Example 16],–,–,12 ± 1,–,–,1.7 ± 0.2,82,7 ± 1
COc1ccc2c(c1)CC1(CCN([C@@H]3CCN(Cc4nc5c(c(=O)[nH]4)COCC5)C3=O)CC1)C2=O [Example 17],–,–,3850 ± 480,–,–,396 ± 10,2000 ± 900,1790 ± 140
"COc1ccc(C(=O)C2CCN(C3CCCN(Cc4nc5c(c(=O)[nH]4)COCC5)C3=O)CC2)cc1 (stereo not shown) [Example 18, 2-[4-(4-Methoxy-benzoyl)-2′-oxo-[1,3′]bipiperidinyl-1′-ylmethyl]-3,5,7,8-tetrahydro-pyrano[4,3-d]pyrimidin-4-one]",15 ± 1,5.6 ± 0.7,46 ± 1,99,51 ± 7,–,–,–
"COc1ccc(C(=O)C2CCN(C3CCN(Cc4nccc(=O)[nH]4)C3=O)CC2)cc1 (stereo not shown) [Example 22, 2-{3-[4-(4-Methoxy-benzoyl)-piperidin-1-yl]-2-oxo-pyrrolidin-1-ylmethyl}-3H-pyrimidin-4-one]",764 ± 56,390 ± 190,1500 ± 120,–,–,–,–,–
"COc1ccc(C(=O)C2CCN(C3CCN(Cc4nc(C)cc(=O)[nH]4)C3=O)CC2)cc1 (stereo not shown) [Example 23, 2-{3-[4-(4-Methoxy-benzoyl)-piperidin-1-yl]-2-oxo-pyrrolidin-1-ylmethyl}-6-methyl-3H-pyrimidin-4-one]",137 ± 22,56 ± 33,286 ± 5,489,227 ± 25,–,–,–
"COc1ccc(C(=O)C2CCN(C3CCN(Cc4nc5ccccc(=O)c5[nH]4)C3=O)CC2)cc1 (stereo not shown) [Example 27, 2-((3-(4-(4-methoxybenzoyl)piperidin-1-yl)-2-oxopyrrolidin-1-yl)methyl)cyclohepta[d]imidazol-4(3H)-one]",–,0.4 ± 0.3,36 ± 3,1.5,3.2 ± 0.1,–,–,–
"COc1ccc(C(=O)C2CCN([C@@H]3CCN(Cc4nc5ccccc(=O)c5[nH]4)C3=O)CC2)cc1C [Example 29, 2-{(R)-3-[4-(4-Methoxy-3-methyl-benzoyl)-piperidin-1-yl]-2-oxo-pyrrolidin-1-ylmethyl}-3H-cycloheptaimidazol-4-one]",112,14 ± 4,278 ± 50,10,9 ± 1,–,–,–
"COc1ccc(C(=O)C2CCN([C@H]3CCN(Cc4nc5ccccc(=O)c5[nH]4)C3=O)CC2)cc1 [Example 30, 2-{(S)-3-[4-(4-Methoxy-benzoyl)-piperidin-1-yl]-2-oxo-pyrrolidin-1-ylmethyl}-3H-cycloheptaimidazol-4-one]",–,1.1 ± 0.1,9.5 ± 0.7,0.86 ± 0.1,0.6 ± 0.1,–,–,–
COc1ccc(C(=O)C2CCN([C@H]3CCN(CC(=O)Nc4nnc5n4CCS5)C3=O)CC2)cc1 [Example 33],–,–,830 ± 20,–,–,–,1610,1340 ± 110
"COc1ccc(C(=O)C2CCN(C3CCN(CC(=O)Nc4nnnn4C)C3=O)CC2)cc1 (stereo not shown) [Example 36, 2-(3-(4-(4-methoxybenzoyl)piperidin-1-yl)-2-oxopyrrolidin-1-yl)-N-(1-methyl-1H-tetrazol-5-yl)acetamide]",1480 ± 20,7600 ± 800,3080 ± 230,> 10000,–,–,–,–
"COc1ccc(C(=O)C2CCN(C3CCN(CC(=O)Nc4nncc5c4CCCO5)C3=O)CC2)cc1 (stereo not shown) [Example 37, N-(3,4-dihydro-2H-pyrano[2,3-d]pyridazin-5-yl)-2-(3-(4-(4-methoxybenzoyl)piperidin-1-yl)-2-oxopyrrolidin-1-yl)acetamide]",970 ± 60,396 ± 26,3010 ± 60,2230,–,–,–,–
"COc1ccc(C(=O)C2CCN(C3CCN(CC(=O)Nc4noc5ncccc45)C3=O)CC2)cc1 (stereo not shown) [Example 38, N-(isoxazolo[5,4-b]pyridin-3-yl)-2-(3-(4-(4-methoxybenzoyl)piperidin-1-yl)-2-oxopyrrolidin-1-yl)acetamide]",4560 ± 40,2030 ± 180,6500 ± 800,7900,–,–,–,–
